According to ChEMBL document CHEMBL3885881, “DrugMatrix”:

Organism: Rattus norvegicus
Test: DrugMatrix - Regimen: Daily Repeat
Type: toxicity, organism-based, Sprague-Dawley
Set-up: regimen Daily Repeat, gender Male, age 6-8 weeks
Details: in vivo, iv, vehicle 100 % SALINE
[1] = 0 mg/kg, 72 h, tissue Blood, dose level Control, time 3 day
[2] = 0 mg/kg, 72 h, tissue Plasma, dose level Control, time 3 day
[3] = 0 mg/kg, 120 h, tissue Blood, dose level Control, time 5 day
[4] = 0 mg/kg, 120 h, tissue Plasma, dose level Control, time 5 day

## INSULIN HUMAN
[1]
  ABSOLUTE BASOPHIL: 0 CELLS/uL
  ABSOLUTE EOSINOPHIL: 46.17 CELLS/uL
  ABSOLUTE LYMPHOCYTE: 9089 CELLS/uL
  ABSOLUTE MONOCYTE: 242 CELLS/uL
  ABSOLUTE SEGMENTED NEUTROPHIL: 856.17 CELLS/uL
  BASOPHIL: 0%
  EOSINOPHIL: 0.5%
  ERYTHROCYTE COUNT: 5.1 x10E6/uL
  HEMATOCRIT: 32.5%
  HEMOGLOBIN: 12.35 G/DL
  LEUKOCYTE COUNT: 10.23 x10E3/uL
  LYMPHOCYTE: 88.5%
  MEAN CORPUSCULAR HEMOGLOBIN: 24.18 pg
  MEAN CORPUSCULAR HEMOGLOBIN CONCENTRATION: 38 G/DL
  MEAN CORPUSCULAR VOLUME: 63.62 fL
  MONOCYTE: 2.5%
  NEUTROPHIL: 8.5%
  NUCLEATED RED BLOOD CELLS: 0.17 /100WBC
  PLATELET COUNT: 1038.67 x10E3/uL
[2]
  ALANINE AMINOTRANSFERASE: 51.33 u/L
  ALBUMIN: 3.9 G/DL
  ALKALINE PHOSPHATASE: 409.33 u/L
  ASPARTATE AMINOTRANSFERASE: 91.67 u/L
  CHLORIDE: 97.83 MEQ/L
  CHOLESTEROL: 79.33 mg/dL
  CREATINE PHOSPHOKINASE: 628.67 u/L
  CREATININE: 0.21 mg/dL
  LACTATE DEHYDROGENASE: 120.33 u/L
  PHOSPHORUS: 10.48 mg/dL
  POTASSIUM: 5.83 MEQ/L
  TOTAL BILIRUBIN: 0.2 mg/dL
  TOTAL PROTEIN: 6.15 G/DL
  URIC ACID: 0.45 mg/dL
[3]
  ABSOLUTE BASOPHIL: 0 CELLS/uL
  ABSOLUTE EOSINOPHIL: 12.17 CELLS/uL
  ABSOLUTE LYMPHOCYTE: 10388 CELLS/uL
  ABSOLUTE MONOCYTE: 140.17 CELLS/uL
  ABSOLUTE SEGMENTED NEUTROPHIL: 1576.33 CELLS/uL
  BASOPHIL: 0%
  EOSINOPHIL: 0.17%
  ERYTHROCYTE COUNT: 5.71 x10E6/uL
  HEMATOCRIT: 35.57%
  LEUKOCYTE COUNT: 12.12 x10E3/uL
  LYMPHOCYTE: 85.83%
  MEAN CORPUSCULAR HEMOGLOBIN: 23.53 pg
  MEAN CORPUSCULAR HEMOGLOBIN CONCENTRATION: 37.73 G/DL
  MONOCYTE: 1%
  NEUTROPHIL: 13%
  NUCLEATED RED BLOOD CELLS: 0.33 /100WBC
  PLATELET COUNT: 1347.67 x10E3/uL
[4]
  ALANINE AMINOTRANSFERASE: 47.83 u/L
  ALKALINE PHOSPHATASE: 380 u/L
  ASPARTATE AMINOTRANSFERASE: 81.17 u/L
  BLOOD UREA NITROGEN: 14.67 mg/dL
  CARBON DIOXIDE: 36.17 mmol/L
  CHLORIDE: 98.17 MEQ/L
  CHOLESTEROL: 69.33 mg/dL
  CREATINE PHOSPHOKINASE: 547.17 u/L
  CREATININE: 0.28 mg/dL
  GLUCOSE: 140.5 mg/dL
  LACTATE DEHYDROGENASE: 153.83 u/L
  LIPASE: 7.83 u/L
  POTASSIUM: 5.86 MEQ/L
  TOTAL BILIRUBIN: 0.17 mg/dL
  TOTAL PROTEIN: 6.33 G/DL
  URIC ACID: 0.68 mg/dL
[…], 72 h, tissue Blood, dose 0.56 mg/Kg, dose level High, time 3 day
  ABSOLUTE BASOPHIL: 0 CELLS/uL
